The structures appear in SMILES notation. “And” between values parts separate entries of the source, which are not always exact repeats. Equal entries are not always repeated.

In the data set the test system is β-glucuronidase in rat colon feces. The data set is described as follows: Rat colon fecal homogenate stability assay. Particulars: in vitro half-life in rat fecal supernatant-homogenate, anaerobic, 10 μM substrate, individual values when assay repeated; for half-life at 10 μM: male, rat, rat colon fecal supernatant-homogenate, read-out: T½. Format: in vitro ADME. The source says: The compounds of the present invention contain a glucuronide prodrug moiety that is expected to be cleaved by β-glucuronidase enzyme. The objective of this assay was to determine the half-life for compounds of the present invention in the presence of β-glucuronidase in rat colon feces.
Following sacrifice of a naïve male rat (˜300 g) by cardiac puncture exsanguination, the colon was ligated and removed to an anaerobic chamber (AS-580, Anaerobe Systems). The fecal content was removed within the chamber and was diluted 1:10 with phosphate buffer (1 gram fecal content to 9 mL phosphate buffer) and the resulting mixture was homogenized using a handheld Omni Tissue Master. The fecal homogenate was centrifuged at 2000 g for 10 min to remove bulk material and the supernatant was removed and used for the incubations.
DMSO stock solutions (10 mM) of the test compounds and sulfasalazine (control) were prepared. Sulfasalazine was used as a positive control to confirm viability of the fecal supernatant-homogenate (see, e.g., Azad Khan et al., Clinical Science (1983) 64, 349-354). If the in vitro half-life (T½) for sulfasalazine in the fecal sample was less than 30 min, the fecal sample was deemed to be viable and in true anaerobic conditions. However, if the T½ for sulfasalazine was greater than 30 min, the fecal sample was typically contaminated with oxygen and was not viable. The final substrate concentration of each assay was 10 μM. Reactions were started by adding a 5 μL aliquot of diluted test compound stock solution into 300 μL of rat fecal supernatant-homogenate. At 0, 15, 30, 60, 90, and 120 min post reaction initiation, a 50 μL aliquot was removed and added to a mixture of 200 μL of acetonitrile with 3% formic acid and an internal standard. All samples were centrifuged at 2000 g for 10 min after which 50 μL of supernatant was diluted into 150 μL of water for analysis on an LC-MS system. In vitro half-lives (T½) for the test compounds were calculated as follows: T½=0.693/elimination rate constant. When the assay was performed more than once, individual values are reported.

`C[C@@H]1CCN(C(=O)CC#N)C[C@@H]1N(C)c1ncnc2c1ccn2C(=O)N(C)Cc1cc([N+](=O)[O-])ccc1O[C@@H]1O[C@H](C(=O)O)[C@@H](O)[C@H](O)[C@H]1O` [Compound III-7, (2S,3S,4S,5R,6S)-6-(2-((4-(((3R,4R)-1-(2-Cyanoacetyl)-4-methylpiperidin-3-yl)(methyl)amino)-N-methyl-7H-pyrrolo[2,3-d]pyrimidine-7-carboxamido)methyl)-4-nitrophenoxy)-3,4,5-trihydroxytetrahydro-2H-pyran-2-carboxylic Acid]: the T½ was <15, <15 min and the half-life at 10 μM was less than 15 min.
Turning to `C[C@@H]1CCN(C(=O)CC#N)C[C@@H]1N(C)c1ncnc2c1ccn2C(=O)N(C)c1cc(C(F)(F)F)ccc1O[C@@H]1O[C@H](C(=O)O)[C@@H](O)[C@H](O)[C@H]1O` [Compound III-4, (2S,3S,4S,5R,6S)-6-(2-(4-(((3R,4R)-1-(2-cyanoacetyl)-4-methylpiperidin-3-yl)(methyl)amino)-N-methyl-7H-pyrrolo[2,3-d]pyrimidine-7-carboxamido)-4-(trifluoromethyl)phenoxy)-3,4,5-trihydroxytetrahydro-2H-pyran-2-carboxylic Acid], the T½ is 6 min and < 15 min.
With `Cc1ccc(O[C@@H]2O[C@H](C(=O)O)[C@@H](O)[C@H](O)[C@H]2O)c(N(C)C(=O)n2ccc3c(N(C)[C@H]4CN(C(=O)CC#N)CC[C@H]4C)ncnc32)c1` [Compound III-3, (2S,3S,4S,5R,6S)-6-(2-(4-(((3R,4R)-1-(2-Cyanoacetyl)-4-methylpiperidin-3-yl)(methyl)amino)-N-methyl-7H-pyrrolo[2,3-d]pyrimidine-7-carboxamido)-4-methylphenoxy)-3,4,5-trihydroxytetrahydro-2H-pyran-2-carboxylic Acid], the T½ is listed as less than 15 min and the half-life at 10 μM was determined as 20 min.
As for `C[C@@H]1CCN(C(=O)CC#N)C[C@@H]1N(C)c1ncnc2c1ccn2C(=O)N(C)c1cc(Cl)ccc1O[C@@H]1O[C@H](C(=O)O)[C@@H](O)[C@H](O)[C@H]1O` [Compound III-5, (2S,3S,4S,5R,6S)-6-(4-Chloro-2-(4-(((3R,4R)-1-(2-cyanoacetyl)-4-methylpiperidin-3-yl)(methyl)amino)-N-methyl-7H-pyrrolo[2,3-d]pyrimidine-7-carboxamido)phenoxy)-3,4,5-trihydroxytetrahydro-2H-pyran-2-carboxylic Acid], the half-life at 10 μM is less than 15 min.
On the same count and under the same terms, the result for `C[C@@H]1CCN(C(=O)CC#N)C[C@@H]1N(C)c1ncnc2c1ccn2C(=O)N(C)CCN(C)C(=O)OCc1ncccc1O[C@@H]1O[C@H](C(=O)O)[C@@H](O)[C@H](O)[C@H]1O` [Compound V-2, (2S,3S,4S,5R,6S)-6-((2-((((2-(4-(((3R,4R)-1-(2-Cyanoacetyl)-4-methylpiperidin-3-yl)(methyl)amino)-N-methyl-7H-pyrrolo[2,3-d]pyrimidine-7-carboxamido)ethyl)(methyl)carbamoyl)oxy)methyl)pyridin-3-yl)oxy)-3,4,5-trihydroxytetrahydro-2H-pyran-2-carboxylic Acid] reads less than 15 min.
`C[C@@H]1CCN(C(=O)CC#N)C[C@@H]1N(C)c1ncnc2c1ccn2C(=O)N(C)CCN(C)C(=O)OCc1ccccc1O[C@@H]1O[C@H](C(=O)O)[C@@H](O)[C@H](O)[C@H]1O` [Compound V-1, (2S,3S,4S,5R,6S)-6-(2-((((2-(4-(((3R,4R)-1-(2-Cyanoacetyl)-4-methylpiperidin-3-yl)(methyl)amino)-N-methyl-7H-pyrrolo[2,3-d]pyrimidine-7-carboxamido)ethyl)(methyl)carbamoyl)oxy)methyl)phenoxy)-3,4,5-trihydroxytetrahydro-2H-pyran-2-carboxylic Acid]: the T½ is reported as <15, <15 min and the half-life at 10 μM was less than 15 min.
